Measurements as given in patent publication US10138247B2, “7-(morpholin-4-yl)pyrazole[1,5-A]pyrimidine derivatives as PI3 kinase inhibitors” (priority 2015, dated 2018).
pIC50: −log10 of the molar value. Like-named read-outs stand apart in the source and are kept apart here.

How the values were obtained:
Type in all cases: biochemical
[1] = biological target: T1, PI3Kβ (Homo sapiens, UniProt P42338); experiment: PI3K kinases inhibition in vitro (ADP-Glo), PI3Kβ
T1 construct: purchased Merck Millipore
T1 sequence (P42338 whole entry): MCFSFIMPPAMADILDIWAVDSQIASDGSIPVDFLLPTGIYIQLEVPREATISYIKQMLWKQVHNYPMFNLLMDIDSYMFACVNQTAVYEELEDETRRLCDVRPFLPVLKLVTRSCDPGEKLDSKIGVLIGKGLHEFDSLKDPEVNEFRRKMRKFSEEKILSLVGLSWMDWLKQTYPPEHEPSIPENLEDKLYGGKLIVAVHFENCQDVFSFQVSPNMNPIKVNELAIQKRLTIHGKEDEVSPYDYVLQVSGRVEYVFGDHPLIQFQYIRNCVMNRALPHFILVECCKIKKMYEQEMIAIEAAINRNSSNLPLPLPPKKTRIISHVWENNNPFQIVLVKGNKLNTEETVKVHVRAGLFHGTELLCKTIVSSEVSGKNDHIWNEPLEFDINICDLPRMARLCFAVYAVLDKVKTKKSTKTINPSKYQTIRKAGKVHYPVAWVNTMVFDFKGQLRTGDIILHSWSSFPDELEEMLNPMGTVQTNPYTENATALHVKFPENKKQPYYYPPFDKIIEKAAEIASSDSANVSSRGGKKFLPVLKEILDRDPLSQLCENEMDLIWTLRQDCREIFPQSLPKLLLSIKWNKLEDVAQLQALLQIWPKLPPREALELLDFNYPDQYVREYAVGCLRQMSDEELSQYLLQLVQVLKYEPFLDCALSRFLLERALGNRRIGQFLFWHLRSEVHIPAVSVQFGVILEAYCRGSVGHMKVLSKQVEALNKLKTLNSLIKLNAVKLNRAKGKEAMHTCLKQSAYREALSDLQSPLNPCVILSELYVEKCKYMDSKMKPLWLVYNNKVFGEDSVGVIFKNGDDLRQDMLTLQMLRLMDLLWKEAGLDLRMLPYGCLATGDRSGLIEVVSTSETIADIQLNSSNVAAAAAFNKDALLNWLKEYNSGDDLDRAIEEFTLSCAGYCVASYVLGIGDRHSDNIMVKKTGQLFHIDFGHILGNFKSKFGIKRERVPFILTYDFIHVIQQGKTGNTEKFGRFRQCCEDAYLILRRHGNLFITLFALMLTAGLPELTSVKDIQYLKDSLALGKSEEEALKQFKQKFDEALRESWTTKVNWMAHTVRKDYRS
T1 sequence (P27986 whole entry, further chain): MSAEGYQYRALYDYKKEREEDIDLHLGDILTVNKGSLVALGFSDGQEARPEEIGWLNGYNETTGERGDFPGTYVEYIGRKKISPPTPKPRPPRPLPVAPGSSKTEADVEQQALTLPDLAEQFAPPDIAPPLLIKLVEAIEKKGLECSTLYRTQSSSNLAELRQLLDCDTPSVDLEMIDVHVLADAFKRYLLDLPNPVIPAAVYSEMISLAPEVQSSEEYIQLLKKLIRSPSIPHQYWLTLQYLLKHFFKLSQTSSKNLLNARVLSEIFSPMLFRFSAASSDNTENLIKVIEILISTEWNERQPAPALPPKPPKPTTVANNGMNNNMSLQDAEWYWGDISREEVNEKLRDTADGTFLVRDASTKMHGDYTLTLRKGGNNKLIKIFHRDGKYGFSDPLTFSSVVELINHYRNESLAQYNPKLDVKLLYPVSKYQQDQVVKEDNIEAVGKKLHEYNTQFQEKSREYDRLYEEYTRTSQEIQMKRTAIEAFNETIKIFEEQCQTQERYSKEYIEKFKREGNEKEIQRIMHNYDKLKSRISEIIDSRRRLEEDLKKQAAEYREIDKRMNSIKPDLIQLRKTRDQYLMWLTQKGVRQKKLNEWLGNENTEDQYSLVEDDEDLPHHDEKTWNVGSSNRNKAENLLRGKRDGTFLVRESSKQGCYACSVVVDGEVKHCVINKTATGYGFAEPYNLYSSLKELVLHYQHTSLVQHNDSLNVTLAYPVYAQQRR
Experimental: (§1) Tested compounds were dissolved in 100% DMSO, and thus obtained solutions were serially diluted in 1× reaction buffer. Recombinant kinase was diluted in a reaction mixture comprising 5× reaction buffer, substrate (1 mM sodium diacetate 4,5-bisphosphate phosphatydylinositol (PIP2) solution in 40 mM Tris buffer), and water. To the wells in a 96-wells plate, 5 μl of compounds solutions and 15 μl of the kinase solution in the reaction mixture were added. To initiate interaction of tested chemical compounds with the enzyme, the plate was incubated for 10 minutes at suitable temperature in a plate thermostat with orbital shaking at 600 rpm. Negative control wells contained all above reagents except tested compound and kinase, and positive control wells contained all above reagents except tested compounds. Enzymatic reaction was initiated by adding 5 μl of 150 μM ATP solution, subsequently the plate was incubated for 1 hour at 25° C. or 30° C. (depending on PI3K isoform tested) in plate thermostat with orbital shaking of the plate contents at 600 rpm. Reaction conditions are presented below in Table 12.
(§2) Detection of ADP formed in the enzymatic reaction was then performed using ADP-Glo Kinase Assay (Promega). To the wells of a 96-well plate 25 μl of ADP-Glo Reagent were added, and the plate was incubated for 40 minutes at 25° C. in a plate thermostat with orbital shaking at 600 rpm. Then to the wells of 96-well plate 50 μl of Kinase Detection Reagent were added and the plate was incubated for 40 minutes at 25° C. in a plate thermostat with orbital shaking at 600 rpm. After incubation time, luminescence intensity in a well was measured by Victor Light luminometer (Perkin Elmer, Inc.).
(§3) IC50 values were determined on the basis of luminescence intensity measurements in wells containing tested compounds at different concentrations and in control wells. These values were calculated with Graph Pad 5.03 software by fitting the curve using non-linear regression. Each compound was tested at least in quadruplicates (4 wells) on two 96-well plates using at least 4 wells of each of the controls.

[2] = biological target: T2, PI3Kα (Homo sapiens, UniProt P42336); experiment: PI3K kinases inhibition in vitro (ADP-Glo), PI3Kα
T2 construct: purchased Carna Biosciences
T2 sequence (P42336 whole entry): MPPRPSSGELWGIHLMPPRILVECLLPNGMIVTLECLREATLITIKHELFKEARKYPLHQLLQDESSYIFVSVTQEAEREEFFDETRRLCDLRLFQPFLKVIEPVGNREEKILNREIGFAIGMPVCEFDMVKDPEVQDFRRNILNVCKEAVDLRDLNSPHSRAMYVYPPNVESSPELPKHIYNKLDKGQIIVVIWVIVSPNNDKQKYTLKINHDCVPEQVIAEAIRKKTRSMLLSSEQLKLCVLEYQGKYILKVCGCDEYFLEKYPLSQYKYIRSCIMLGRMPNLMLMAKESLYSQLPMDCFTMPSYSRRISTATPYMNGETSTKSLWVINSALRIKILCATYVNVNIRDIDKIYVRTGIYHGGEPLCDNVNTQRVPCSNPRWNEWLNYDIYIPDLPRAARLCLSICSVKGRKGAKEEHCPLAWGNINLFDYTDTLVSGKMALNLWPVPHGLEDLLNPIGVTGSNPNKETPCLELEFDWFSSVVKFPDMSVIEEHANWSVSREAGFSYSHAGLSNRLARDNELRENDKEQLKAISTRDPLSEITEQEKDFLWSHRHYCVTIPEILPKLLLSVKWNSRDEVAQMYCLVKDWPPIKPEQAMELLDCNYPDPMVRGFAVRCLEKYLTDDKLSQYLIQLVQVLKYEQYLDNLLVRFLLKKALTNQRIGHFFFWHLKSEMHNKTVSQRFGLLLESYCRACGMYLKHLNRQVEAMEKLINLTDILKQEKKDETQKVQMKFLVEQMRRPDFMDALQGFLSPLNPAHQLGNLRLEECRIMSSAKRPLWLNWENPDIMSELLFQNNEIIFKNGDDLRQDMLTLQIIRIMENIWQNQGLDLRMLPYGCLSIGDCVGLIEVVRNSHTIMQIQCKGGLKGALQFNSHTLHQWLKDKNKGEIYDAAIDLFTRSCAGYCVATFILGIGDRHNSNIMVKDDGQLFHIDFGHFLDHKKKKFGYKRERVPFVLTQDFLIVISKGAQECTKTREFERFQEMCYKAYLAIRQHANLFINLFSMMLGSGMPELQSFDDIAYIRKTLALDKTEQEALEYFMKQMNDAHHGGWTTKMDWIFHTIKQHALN
T2 sequence (P27986 whole entry partner): as the sequence (P27986 whole entry, further chain) above
Experimental: as §1, §2, §3

[3] = biological target: T3, PI3Kδ (Homo sapiens, UniProt O00329); experiment: PI3K kinases inhibition in vitro (ADP-Glo), PI3Kδ
T3 construct: purchased Merck Millipore
T3 sequence (O00329 whole entry): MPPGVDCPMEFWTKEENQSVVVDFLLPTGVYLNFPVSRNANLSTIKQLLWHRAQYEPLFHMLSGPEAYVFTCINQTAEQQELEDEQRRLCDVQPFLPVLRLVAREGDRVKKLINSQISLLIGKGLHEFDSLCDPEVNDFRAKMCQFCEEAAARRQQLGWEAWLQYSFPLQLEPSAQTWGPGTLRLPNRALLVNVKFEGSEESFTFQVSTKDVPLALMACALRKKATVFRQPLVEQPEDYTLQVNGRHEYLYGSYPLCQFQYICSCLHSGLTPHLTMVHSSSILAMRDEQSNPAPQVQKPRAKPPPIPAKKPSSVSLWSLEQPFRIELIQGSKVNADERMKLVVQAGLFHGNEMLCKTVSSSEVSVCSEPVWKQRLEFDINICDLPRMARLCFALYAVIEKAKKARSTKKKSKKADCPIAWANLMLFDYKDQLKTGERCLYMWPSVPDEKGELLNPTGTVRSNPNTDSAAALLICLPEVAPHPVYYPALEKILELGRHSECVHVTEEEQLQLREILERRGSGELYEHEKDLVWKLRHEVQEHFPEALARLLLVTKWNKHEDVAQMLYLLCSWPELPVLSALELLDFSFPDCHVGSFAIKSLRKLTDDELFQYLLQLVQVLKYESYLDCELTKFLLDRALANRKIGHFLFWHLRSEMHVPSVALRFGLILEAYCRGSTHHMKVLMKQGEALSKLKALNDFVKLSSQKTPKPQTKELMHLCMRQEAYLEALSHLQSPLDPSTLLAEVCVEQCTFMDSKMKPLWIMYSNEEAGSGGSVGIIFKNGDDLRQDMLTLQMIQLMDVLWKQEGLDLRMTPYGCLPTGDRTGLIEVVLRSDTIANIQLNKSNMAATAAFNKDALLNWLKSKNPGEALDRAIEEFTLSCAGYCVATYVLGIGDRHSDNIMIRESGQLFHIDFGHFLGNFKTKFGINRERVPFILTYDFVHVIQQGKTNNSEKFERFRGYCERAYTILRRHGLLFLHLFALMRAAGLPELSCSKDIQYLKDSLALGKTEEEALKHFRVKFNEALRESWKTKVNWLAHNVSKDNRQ
T3 sequence (P27986 whole entry, further chain): as the sequence (P27986 whole entry, further chain) above
Experimental: as §1, §2, §3

[4] = biological target: T4, PI3Kγ (Homo sapiens, UniProt P48736); experiment: PI3K kinases inhibition in vitro (ADP-Glo), PI3Kγ
T4 construct: purchased Merck Millipore
T4 sequence (P48736 whole entry): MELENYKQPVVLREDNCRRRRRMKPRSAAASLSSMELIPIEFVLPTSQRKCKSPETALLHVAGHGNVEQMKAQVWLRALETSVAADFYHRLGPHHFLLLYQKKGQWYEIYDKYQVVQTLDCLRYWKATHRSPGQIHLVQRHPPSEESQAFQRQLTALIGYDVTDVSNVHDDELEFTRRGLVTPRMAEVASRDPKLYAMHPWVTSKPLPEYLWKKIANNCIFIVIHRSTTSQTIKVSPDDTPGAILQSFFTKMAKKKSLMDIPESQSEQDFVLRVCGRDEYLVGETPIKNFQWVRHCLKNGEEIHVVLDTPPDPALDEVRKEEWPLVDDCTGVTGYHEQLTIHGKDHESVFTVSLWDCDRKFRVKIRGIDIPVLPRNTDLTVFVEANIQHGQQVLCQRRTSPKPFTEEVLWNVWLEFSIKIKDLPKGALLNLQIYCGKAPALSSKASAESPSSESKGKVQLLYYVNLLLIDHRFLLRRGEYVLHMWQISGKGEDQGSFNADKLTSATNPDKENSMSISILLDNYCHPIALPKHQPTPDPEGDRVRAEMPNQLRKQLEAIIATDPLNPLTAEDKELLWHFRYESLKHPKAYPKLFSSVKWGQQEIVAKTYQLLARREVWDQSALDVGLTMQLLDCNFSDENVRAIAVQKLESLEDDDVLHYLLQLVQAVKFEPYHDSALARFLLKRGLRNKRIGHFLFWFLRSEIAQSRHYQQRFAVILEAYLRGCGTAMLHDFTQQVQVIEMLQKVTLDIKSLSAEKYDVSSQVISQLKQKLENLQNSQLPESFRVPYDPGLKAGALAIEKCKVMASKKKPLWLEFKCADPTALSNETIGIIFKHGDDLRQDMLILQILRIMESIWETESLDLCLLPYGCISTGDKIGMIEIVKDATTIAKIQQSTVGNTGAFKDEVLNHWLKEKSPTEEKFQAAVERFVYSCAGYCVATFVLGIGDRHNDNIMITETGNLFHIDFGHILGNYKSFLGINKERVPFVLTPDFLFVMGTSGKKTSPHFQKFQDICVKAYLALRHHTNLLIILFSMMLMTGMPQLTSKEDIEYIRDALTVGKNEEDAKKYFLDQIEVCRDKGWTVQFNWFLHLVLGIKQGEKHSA
Experimental: as §1, §2, §3

[5] = averaged, recombinant kinase, 30° C., 1 h, PIP2 50 μM, read-out: PI3Kβ IC50
[6] = averaged, recombinant kinase, 25° C., 1 h, PIP2 30 μM, read-out: PI3Kδ IC50
[7] = averaged, recombinant kinase, 30° C., 1 h, PIP2 50 μM, read-out: PI3Kγ IC50

Row | SMILES | pIC50 [1, 5] | pIC50 [2] | pIC50 [3, 6] | pIC50 [4, 7] | pIC50 [1] | pIC50 [3] | pIC50 [4]
1 | O=C(C1CC1)N1CCN(Cc2cc3nc(-c4cccc5[nH]ccc45)cc(N4CCOCC4)n3n2)CC1 [Example 1, 2-((4-(cyclopropanecarbonyl)piperazin-1-yl)methyl)-5-(1H-indol-4-yl)-7-(morpholin-4-yl)pyrazolo[1,5-a]pyrimidine] | < 6.00 | < 6.00 | > 7.00 | 6.00 to 7.00 | – | – | –
2 | CN(C)C1CCN(Cc2cc3nc(-c4cccc5[nH]ccc45)cc(N4CCOCC4)n3n2)CC1 [Example 5, 2-((4-(dimethylamino)piperidin-1-yl)methyl)-5-(1H-indol-4-yl)-7-(morpholin-4-yl)pyrazolo[1,5-a]-pyrimidine] | – | < 6.00 | – | – | < 6.00 | > 7.00 | < 6.00
3 | CC(C)(O)C1CCN(Cc2cc3nc(-c4c(F)ccc5[nH]ccc45)cc(N4CCOCC4)n3n2)CC1 [Example 7, 2-((4-(2-hydroxypropan-2-yl)-piperidin-1-yl)methyl)-5-(5-fluoro-1H-indol-4-yl)-7-(morpholin-4-yl)-pyrazolo[1,5-a]pyrimidine] | < 6.00 | < 6.00 | > 7.00 | < 6.00 | – | – | –
4 | CC(C)(C(N)=O)N1CCN(Cc2cc3nc(-c4cccc5[nH]ccc45)cc(N4CCOCC4)n3n2)CC1 [Example 9, 2-(4-((5-(1H-indol-4-yl)-7-(morpholin-4-yl)pyrazolo[1,5-a]-pyrimidin-2-yl)methyl)piperazin-1-yl)-2-methyl-propionamide] | – | < 6.00 | – | – | < 6.00 | > 7.00 | < 6.00
5 | CC(C)(C(N)=O)N1CCN(Cc2cc3nc(-c4c(F)ccc5[nH]ccc45)cc(N4CCOCC4)n3n2)CC1 [Example 10, 2-(4-((5-(5-fluoro-1H-indol-4-yl)-7-(morpholin-4-yl)pyrazolo[1,5-a]-pyrimidin-2-yl)methyl)piperazin-1-yl)-2-methyl-propionamide] | < 6.00 | < 6.00 | > 7.00 | < 6.00 | – | – | –
6 | CN(C)C1CCN(Cc2cc3nc(-c4c(F)ccc5[nH]ccc45)cc(N4CCOCC4)n3n2)CC1 [Example 13, 2-((4-(dimethylamino)piperidin-1-yl)methyl)-5-(5-fluoro-1H-indol-4-yl)-7-(morpholin-4-yl)pyrazolo[1,5-a]pyrimidine] | < 6.00 | < 6.00 | > 7.00 | < 6.00 | – | – | –
7 | CC(C)(C)N1CCN(Cc2cc3nc(-c4ccc(N)nc4)cc(N4CCOCC4)n3n2)CC1 [Example 16, 5-(2-aminopyridin-5-yl)-2-((4-tert-butylpiperazin-1-yl)methyl)-7-(morpholin-4-yl)pyrazolo[1,5-a]-pyrimidine] | < 6.00 | < 6.00 | > 7.00 | < 6.00 | – | – | –
8 | CC(C)(C)N1CCN(Cc2cc3nc(-c4cnc(N)nc4)cc(N4CCOCC4)n3n2)CC1 [Example 17, 5-(2-aminopyrimidin-5-yl)-2-((4-tert-butylpiperazin-1-yl)methyl)-7-(morpholin-4-yl)pyrazolo[1,5-a]-pyrimidine] | < 6.00 | < 6.00 | > 7.00 | < 6.00 | – | – | –
9 | CC(C)(O)C1CCN(Cc2cc3nc(-c4ccc(N)nc4)cc(N4CCOCC4)n3n2)CC1 [Example 19, 5-(2-aminopyridin-5-yl)-2-((4-(2-hydroxypropan-2-yl)piperidin-1-yl)methyl)-7-(morpholin-4-yl)-pyrazolo[1,5-a]pyrimidine] | < 6.00 | < 6.00 | > 7.00 | < 6.00 | – | – | –
10 | c1cc(-c2cc(N3CCOCC3)n3nc(CN4CCN(C5CC5)CC4)cc3n2)c2cc[nH]c2c1 [Example 20, 2-((4-cyclopropyl-piperazin-1-yl)-methyl)-5-(1H-indol-4-yl)-7-(morpholin-4-yl)pyrazolo[1,5-a]-pyrimidine] | – | < 6.00 | – | – | < 6.00 | > 7.00 | –
11 | CCN1CCN(Cc2cc3nc(-c4cccc5[nH]ccc45)cc(N4CCOCC4)n3n2)CC1 [Example 22, 2-((4-ethylpiperazin-1-yl)methyl)-5-(1H-indol-4-yl)-7-(morpholin-4-yl)pyrazolo[1,5-a]pyrimidine] | – | < 6.00 | – | – | < 6.00 | > 7.00 | < 6.00
12 | c1cc(-c2cc(N3CCOCC3)n3nc(CN4CC(N5CCOCC5)C4)cc3n2)c2cc[nH]c2c1 [Example 25, 5-(1H-indol-4-yl)-2-((3-(morpholin-4-yl)azetidin-1-yl)methyl)-7-(morpholin-4-yl)pyrazolo[1,5-a]-pyrimidine] | – | < 6.00 | – | – | < 6.00 | > 7.00 | < 6.00
13 | CC(C)(C)C1CCN(Cc2cc3nc(-c4cccc5[nH]ccc45)cc(N4CCOCC4)n3n2)CC1 [Example 28, 2-((4-tert-butylpiperidin-1-yl)-methyl)-5-(1H-indol-4-yl)-7-(morpholin-4-yl)pyrazolo[1,5-a]-pyrimidine] | – | < 6.00 | – | – | < 6.00 | > 7.00 | < 6.00
14 | CC(C)(O)C1CCN(Cc2cc3nc(-c4cncc5[nH]ccc45)cc(N4CCOCC4)n3n2)CC1 [Example 29, 5-(1H-6-azaindol-4-yl)-2-((4-(2-hydroxypropan-2-yl)piperidin-1-yl)methyl)-7-(morpholin-4-yl)-pyrazolo[1,5-a]pyrimidine] | < 6.00 | < 6.00 | > 7.00 | – | – | – | –
15 | CC(C)(C)N1CCN(Cc2cc3nc(-c4cncc5[nH]ccc45)cc(N4CCOCC4)n3n2)CC1 [Example 30, 5-(1H-6-azaindol-4-yl)-2-((4-tert-butylpiperazin-1-yl)methyl)-7-(morpholin-4-yl)pyrazolo[1,5-a]-pyrimidine] | – | < 6.00 | – | – | < 6.00 | > 7.00 | < 6.00
16 | O=S1(=O)CCN(C2CN(Cc3cc4nc(-c5cccc6[nH]ccc56)cc(N5CCOCC5)n4n3)C2)CC1 [Example 31, 5-(1H-indol-4-yl)-2-((3-(1,1-dioxothiomorpholin-4-yl)azetidin-1-yl)methyl)-7-(morpholin-4-yl)-pyrazolo[1,5-a]pyrimidine] | – | < 6.00 | – | – | < 6.00 | > 7.00 | < 6.00
17 | CC(C)(C)N1CCN(Cc2cc3nc(-c4ccnc5[nH]ccc45)cc(N4CCOCC4)n3n2)CC1 [Example 32, 5-(1H-7-azaindol-4-yl)-2-((4-tert-butylpiperazin-1-yl)methyl)-7-(morpholin-4-yl)pyrazolo[1,5-a]-pyrimidine] | < 6.00 | < 6.00 | > 7.00 | – | – | – | –
18 | CC(C)(O)C1CCN(Cc2cc3nc(-c4ccnc5[nH]ccc45)cc(N4CCOCC4)n3n2)CC1 [Example 33, 5-(1H-7-azaindol-4-yl)-2-((4-(2-hydroxypropan-2-yl)piperidin-1-yl)methyl)-7-(morpholin-4-yl)-pyrazolo[1,5-a]pyrimidine] | < 6.00 | < 6.00 | > 7.00 | < 6.00 | – | – | –
19 | Fc1ccc2[nH]ccc2c1-c1cc(N2CCOCC2)n2nc(CN3CCN(C4COC4)CC3)cc2n1 [Example 35] | < 6.00 | < 6.00 | > 7.00 | < 6.00 | – | – | –
20 | CC(C)(O)C1CCN(Cc2cc3nc(-n4c(C(F)F)nc5ccccc54)cc(N4CCOCC4)n3n2)CC1 [Example 51, 5-(2-(difluoromethyl)benzimidazol-1-yl)-2-((4-(2-hydroxypropan-2-yl)piperidin-1-yl)methyl)-7-(morpholin-4-yl)pyrazolo[1,5-a]-pyrimidine] | < 6.00 | < 6.00 | > 7.00 | < 6.00 | – | – | –
21 | CC(C)(C)N1CCN(Cc2cc3nc(-n4c(C(F)F)nc5cnccc54)cc(N4CCOCC4)n3n2)CC1 [Example 62, 5-(2-(difluoromethyl)imidazo[4,5-c]pyridin-1-yl)-2-((4-tert-butylpiperazin-1-yl)methyl)-7-(morpholin-4-yl)pyrazolo[1,5-a]-pyrimidine] | < 6.00 | < 6.00 | 6.00 to 7.00 | < 6.00 | – | – | –
22 | FC(F)c1nc2ccccc2n1-c1cc(N2CCOCC2)n2nc(CN3CC(N4CCOCC4)C3)cc2n1 [Example 64, 5-(2-(difluoromethyl)benzimidazol-1-yl)-2-((3-(morpholin-4-yl)-azetidin-1-yl)methyl)-7-(morpholin-4-yl)pyrazolo[1,5-a]pyrimidine] | < 6.00 | 6.00 to 7.00 | > 7.00 | < 6.00 | – | – | –
